Drawing on ChEMBL document CHEMBL4837267, “Development of Potent 3-Br-isoxazoline-Based Antimalarial and Antileishmanial Compounds” (ACS Med Chem Lett, 2021), this text covers IC50, inhibition and selectivity ratio for 21 compounds.

Calls of active or inactive are those of the source. No cut-off for these calls is given here.

The test system of data set [1] is Plasmodium falciparum. Briefly: Antimalarial activity against chloroquine sensitive Plasmodium falciparum D10 infected in human red blood cells assessed as reduction in parasite growth measured after 72 hrs by parasite lactate dehydrogenase assay. The settings on record: D10, 72 h. It is filed as functional, organism-based.
In data set [2] the test system is Plasmodium falciparum. In words: Antimalarial activity against chloroquine resistant Plasmodium falciparum W2 infected in human red blood cells assessed as reduction in parasite growth measured after 72 hrs by parasite lactate dehydrogenase assay. It is filed as functional, organism-based. The settings on record: W2, 72 h.
Data set [3] concerns Leishmania infantum. Briefly: Antileishmanial activity against Leishmania infantum (MHOM/TN/80/IPTI) promastigotes assessed as reduction in parasite viability measured after 72 hrs by MTT assay. The settings on record: MHOM/TN/80/IPT. It is filed as functional, organism-based.
Data set [4] deals with Leishmania tropica. In words: Antileishmanial activity against Leishmania tropica (MHOM/SY/2012/ISS3130) promastigotes assessed as reduction in parasite viability measured after 72 hrs by MTT assay. It is filed as functional, organism-based. The settings on record: MHOM/SY/2012/ISS3130, 72 h. Background: Formazan colour is commonly taken as a measure of viable cells.
Data set [5] has as its system Leishmania infantum. Briefly: Antileishmanial activity against Leishmania infantum (MHOM/TN/80/IPTI) promastigotes assessed as reduction in parasite viability at 60 uM measured after 72 hrs by MTT assay. It is filed as functional, organism-based. The settings on record: MHOM/TN/80/IPT.
Data set [6] concerns Leishmania tropica. Briefly: Antileishmanial activity against Leishmania tropica (MHOM/SY/2012/ISS3130) promastigotes assessed as reduction in parasite viability at 60 uM measured after 72 hrs by MTT assay. It is filed as functional, organism-based.
Data set [7] concerns Plasmodium falciparum. In words: Antimalarial activity against chloroquine sensitive Plasmodium falciparum D10 infected in human red blood cells assessed as reduction in parasite growth at 60 uM measured after 72 hrs by parasite lactate dehydrogenase assay. It is filed as functional, organism-based.
Data set [8] relates to Plasmodium falciparum. Briefly: Antimalarial activity against chloroquine resistant Plasmodium falciparum W2 infected in human red blood cells assessed as reduction in parasite growth at 60 uM measured after 72 hrs by parasite lactate dehydrogenase assay. It is filed as functional, organism-based.
Data set [9] has as its system Plasmodium falciparum. In words: Antimalarial activity against […] late stage (IV-V) Plasmodium falciparum 3D7 gametocytes expressing CBG99 luciferase infected in human red blood cells assessed as reduction in gametocyte viability measured after 72 hrs by luminescence based assay. It is filed as functional, organism-based. Particulars: 3D7, 72 h.
Data set [10] has as its system BMDM. Briefly: Cytotoxicity against mouse BMDM cells assessed as reduction in cell viability incubated for 72 hrs by MTT assay. It is filed as cell-based.
The nature of data set [11]: Selectivity index, ratio of IC50 for antimalarial activity against chloroquine sensitive Plasmodium falciparum D10 infected in human red blood cells to IC50 for cytotoxicity against mouse BMDM cells. It is filed as toxicity, cell-based. Particulars: read-out: Selectivity Index.
The nature of data set [12]: Selectivity index, ratio of IC50 for antimalarial activity against chloroquine resistance Plasmodium falciparum W2 infected in human red blood cells to IC50 for Cytotoxicity against mouse BMDM cells. Particulars: read-out: Selectivity Index. It is filed as toxicity, cell-based.
Data set [13] in a line: Selectivity index, ratio of IC50 for antileishmanial activity against Leishmania infantum (MHOM/TN/80/IPTI) promastigotes to IC50 for Cytotoxicity against mouse BMDM cells. It is filed as toxicity, cell-based. The settings on record: read-out: Selectivity Index.
Data set [14] is described as follows: Selectivity index, ratio of IC50 for antileishmanial activity against Leishmania tropica (MHOM/SY/2012/ISS3130) promastigotes to IC50 for Cytotoxicity against mouse BMDM cells. Particulars: read-out: Selectivity Index. It is filed as toxicity, cell-based.

As a reminder, the IC50 is the point on the concentration scale where inhibition reaches its midpoint. On to `BrC1=NOC(c2nc(-c3ccc4ccccc4c3)no2)C1` (stereo not given), for which the half-maximal inhibitory concentration (IC50) worked out at 27.8 µM in data set [1], 27.2 µM in data set [2], 10.5 µM in data set [3] and 5.3 µM in data set [4].

On to `FC(F)(F)c1ccc(-c2noc(C3CC(Br)=NO3)n2)cc1` (stereo not given), for which the IC50 in data set [1] amounted to 31 µM; in data set [2], 34 µM; in [3], 8.7 µM; in data set [4] it was 6.9 µM.

Consider `BrC1=NOC(c2nc(-c3ccccc3)n[nH]2)C1` (stereo not given), for which the IC50 in data set [1] amounted to 35.3 µM; in data set [2], 43 µM. For the same compound, the inhibition result in data set [5] and in data set [6] was “inactive” throughout.

`N[C@H](c1nc(-c2ccccc2)no1)[C@@H]1CC(Br)=NO1`: the inhibition result in data set [7] and in [8] was “inactive” each time.

As to `CC(C)(C)c1ccc(-c2nnc(C3CC(Br)=NO3)o2)cc1` (stereo not given), the IC50 stood at 0.035 µM in [1]; 0.058 µM in [2]; 3.5 µM in [3]; 7.5 µM in data set [4]; 10.4 µM in [9]; 40 µM in [10]. The selectivity ratio in data set [11] was 1140; in data set [12], 690; in data set [13], 11; in data set [14] it was 5.

For `BrC1=NOC(c2nc(-c3ccccc3)no2)C1` (stereo not given), the half-maximal inhibitory concentration (IC50) in data set [1] was 52.7 µM; in data set [2], 64.8 µM; in data set [3], 17.3 µM; in data set [4] it was 43 µM.

As to `BrC1=NOC(c2ncc(-c3ccccc3)o2)C1` (stereo not given), the IC50 in data set [1] is 32.2 µM; in [2], 39.3 µM; in [4], 50.7 µM. In addition, the inhibition entry in [5] is “inactive”.

Consider `Nc1ccc(-c2noc(C3CC(Br)=NO3)n2)cc1` (stereo not given), for which the concentration for half-maximal inhibition (IC50) in [1] is 45.7 µM; in [2], 39.5 µM; in data set [3], 28.8 µM; in data set [4], 33.8 µM.

For `C[C@@H]1[C@H](O)[C@@H](C)/C=C/C=C/C=C/C=C/C=C/C=C/C=C/[C@H](O[C@@H]2O[C@H](C)[C@@H](O)[C@H](N)[C@@H]2O)C[C@@H]2O[C@](O)(C[C@@H](O)C[C@@H](O)[C@H](O)CC[C@@H](O)C[C@@H](O)CC(=O)O[C@H]1C)C[C@H](O)[C@H]2C(=O)O` [AMPHOTERICIN B], the half-maximal inhibitory concentration (IC50) in data set [3] is 0.11 µM.

Consider `BrC1=NOC(c2nc(-c3cccs3)no2)C1` (stereo not given), for which the IC50 worked out at 52.7 µM in [1], 46 µM in [2], 26.2 µM in [3] and 24.9 µM in data set [4].

On to `O=C(O)c1ccc(-c2noc(C3CC(Br)=NO3)n2)cc1` (stereo not given), for which the 50% inhibitory concentration (IC50) is 36.9 µM in [1] and 45.3 µM in data set [2]. In addition, the inhibition result in data set [5] and in data set [6] was “inactive” throughout.

For `Oc1ccc(-c2noc(C3CC(Br)=NO3)n2)cc1` (stereo not given), the concentration for half-maximal inhibition (IC50) in data set [1] worked out at 39 µM; in [2] it was 32.5 µM; in data set [3] it was 14.7 µM; in data set [4], 25.6 µM.

In the case of `CC(C)(C)c1ccc(-c2noc(C3CC(Br)=NO3)n2)cc1` (stereo not given), the IC50 in data set [1] is 3.1 µM; in [2] it was 3.5 µM; in data set [3], 0.29 µM; in [4], 0.31 µM; in [10], 37.3 µM. Moreover, the selectivity ratio in data set [11] turned out to be 12; in [12] it was 11; in data set [13], 129; in data set [14], 120.

In the case of `BrC1=NOC(c2nc(-c3ccsc3)no2)C1` (stereo not given), the IC50 is 58.3 µM in data set [1], 48.1 µM in [2], 27.3 µM in data set [3] and 32.6 µM in data set [4].

In the case of `BrC1=NOC(c2nc(-c3ccc4c(c3)OCCO4)no2)C1` (stereo not given), the half-maximal inhibitory concentration (IC50) in [1] amounted to 29.8 µM; in [2], 32.7 µM; in data set [3], 25.6 µM; in data set [4], 39.4 µM.

Consider `O=C(O)c1ccc(-c2noc(C3CC(Br)=NO3)n2)s1` (stereo not given), for which the IC50 in [1] came to 45.9 µM; in data set [2], 40.4 µM. The inhibition result in [5] and in data set [6] was “inactive” throughout.

For `COc1ccc(-c2noc(C3CC(Br)=NO3)n2)cc1` (stereo not given), the 50% inhibitory concentration (IC50) in [1] was determined as 34.4 µM; in data set [2], 42.5 µM; in [3] it was 12 µM; in data set [4], 14.7 µM.

On to `Fc1ccc(-c2noc(C3CC(Br)=NO3)n2)cc1` (stereo not given), for which the results for the concentration for half-maximal inhibition (IC50) in data set [3] and in data set [4] were 9 µM and 10.9 µM, respectively. The inhibition result in data set [7] and in data set [8] was “inactive” throughout.

With `BrC1=NOC(c2nc(-c3ccccc3)cs2)C1` (stereo not given), the IC50 was 45.8 µM in data set [1], 39.7 µM in [2], 28.8 µM in data set [3] and 33.8 µM in data set [4].

For the compound `BrC1=NOC(c2nnc(-c3ccccc3)s2)C1` (stereo not given), the 50% inhibitory concentration (IC50) is 22.9 µM in data set [1], 41.3 µM in [2] and 60.3 µM in [3]. Besides, in [6], the inhibition entry was “inactive”.

For the compound `BrC1=NOC(c2nnc(-c3ccccc3)o2)C1` (stereo not given), the IC50 is 16.7 µM in data set [1] and 15.1 µM in data set [2]. Besides, the inhibition result in data set [5] and in [6] was “inactive” throughout.
